The record followed here is PubChem BioAssay AID330 (DTP/NCI, 2004).

This experiment has as its system P388 leukemia ip, CD2F1 mice, survival T/C. Put plainly: NCI In Vivo Anticancer Drug Screen. Data for tumor model P388 Leukemia (intraperitoneal) in CD2F1 (CDF1) mice. To be noted: endpoint: median survival time, higher = longer survival. A digest of the protocol:
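Mice carrying the transplanted tumor received test compound or vehicle. Survival was recorded in each group, and the value is the treated-group measurement divided by that of the vehicle-treated control group.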

Setting [1] is: dose: 50.0 mg/kg/injection, schedule: Q01DX005 (ip), vehicle: saline with Tween-80.
[2] abbreviates: dose: 100.0 mg/kg/injection, schedule: Q01DX005 (ip), vehicle: saline with Tween-80.
Setting [3] is: dose: 200.0 mg/kg/injection, schedule: Q01DX005 (ip), vehicle: saline with Tween-80.
Where [4] appears, read: dose: 50.0 mg/kg/injection, schedule: Q01DX009 (ip), vehicle: saline.
The mark [5] stands for this setting: dose: 100.0 mg/kg/injection, schedule: Q01DX009 (ip), vehicle: saline.
Setting [6] is: dose: 200.0 mg/kg/injection, schedule: Q01DX009 (ip), vehicle: saline.
The mark [7] stands for this setting: dose: 100.0 mg/kg/injection, schedule: Q01DX001 (ip), vehicle: saline with Tween-80.
Setting [8] is: dose: 200.0 mg/kg/injection, schedule: Q01DX001 (ip), vehicle: saline with Tween-80.
The mark [9] stands for this setting: dose: 15.0 mg/kg/injection, schedule: Q01DX005 (ip), vehicle: saline with Tween-80.
Where [10] appears, read: dose: 30.0 mg/kg/injection, schedule: Q01DX005 (ip), vehicle: saline with Tween-80.
The mark [11] stands for this setting: dose: 60.0 mg/kg/injection, schedule: Q01DX005 (ip), vehicle: saline with Tween-80.
The mark [12] stands for this setting: dose: 25.0 mg/kg/injection, schedule: Q01DX005 (ip), vehicle: Klucel (hydroxypropylcellulose) (HPC).
Where [13] appears, read: dose: 120.0 mg/kg/injection, schedule: Q01DX005 (ip), vehicle: saline with Tween-80.
Where [14] appears, read: dose: 240.0 mg/kg/injection, schedule: Q01DX005 (ip), vehicle: saline with Tween-80.
Where [15] appears, read: dose: 60.0 mg/kg/injection, schedule: Q01DX005 (ip), vehicle: Klucel (hydroxypropylcellulose) (HPC).
[16] abbreviates: dose: 120.0 mg/kg/injection, schedule: Q01DX005 (ip), vehicle: Klucel (hydroxypropylcellulose) (HPC).

Values joined by “and” are separate entries in the source; they are usually repeats but may differ in a detail not shown here. Equal values may be shown once. Toxic doses and inconclusive results are not listed.

On to `O=C1CC(O)C(Cc2ccccc2)N1` (centres undefined), for which the T/C under setting [1] was 97 % of control, the T/C under setting [2] is 98 % of control and the T/C under setting [3] is 97 % of control.

For `NS(=O)(=O)c1cccnc1Nc1ccc([N+](=O)[O-])cc1`, the T/C reads like this: under setting [4], 105 % of control; under setting [5], 101 % of control; under setting [6], 93 % of control.

With `COc1ccc(CC(=O)Cc2ccc(OC)c(OC)c2)cc1OC`, the T/C (dose: 50.0 mg/kg/injection, schedule: Q01DX009 (ip), vehicle: saline with Tween-80) is 101 % of control; the T/C (dose: 100.0 mg/kg/injection, schedule: Q01DX009 (ip), vehicle: saline with Tween-80) is 111 % of control; the T/C (dose: 200.0 mg/kg/injection, schedule: Q01DX009 (ip), vehicle: saline with Tween-80) is 95 % of control; the T/C (dose: 400.0 mg/kg/injection, schedule: Q01DX009 (ip), vehicle: saline with Tween-80) is 99 % of control; the T/C (dose: 600.0 mg/kg/injection, schedule: Q01DX009 (ip), vehicle: saline with Tween-80) was 87 % of control.

On to `O=C(O)c1cccc(C(=O)O)c1Sc1c(C(=O)O)cccc1C(=O)O`, for which the T/C was 99 % of control under setting [7]; 95 % of control under setting [8]; 91 % of control (dose: 400.0 mg/kg/injection, schedule: Q01DX001 (ip), vehicle: saline with Tween-80).

As to `CN(C)c1ccc(C2c3c(oc4ccccc4c3=O)Oc3oc4ccccc4c(=O)c32)cc1`, the T/C is 98 % of control under setting [9], 100 % of control under setting [10] and 89 % of control under setting [11].

Consider `CC(=O)Nc1ccc(S(=O)(=O)n2c(=O)oc3cc(Br)ccc32)cc1`, for which the T/C is 94 % of control under setting [12]; 87 % of control and 90 % of control (dose: 50.0 mg/kg/injection, schedule: Q01DX005 (ip), vehicle: Klucel (hydroxypropylcellulose) (HPC)); 87 % of control and 90 % of control (dose: 100.0 mg/kg/injection, schedule: Q01DX005 (ip), vehicle: Klucel (hydroxypropylcellulose) (HPC)).

With `OCCN(CCO)Cc1cccc2ccccc12`, the T/C by setting is: under setting [1], 94 % of control; under setting [2], 94 % of control.

Take `CCOC(=O)C1=C(Nc2ccc(Br)cc2)C(=O)N(CC)C1`: the T/C under setting [11] is 109 % of control, the T/C under setting [13] was 100 % of control and the T/C under setting [14] is 106 % of control.

For the compound `O=P(N1CC1)(N1CC1)N1CC2CCC(CC2)C1`, the T/C was 109 % of control (dose: 3.13 mg/kg/injection, schedule: Q01DX009 (ip), vehicle: saline with Tween-80); 154 % of control (dose: 6.25 mg/kg/injection, schedule: Q01DX009 (ip), vehicle: saline with Tween-80); 204 % of control (dose: 12.5 mg/kg/injection, schedule: Q01DX009 (ip), vehicle: saline with Tween-80); 159 % of control (dose: 12.5 mg/kg/injection, schedule: Q01DX009 (ip), vehicle: saline); 120 % of control (dose: 12.5 mg/kg/injection, schedule: Q04DX003 (ip), vehicle: saline); 118 % of control (dose: 25.0 mg/kg/injection, schedule: Q01DX009 (ip), vehicle: saline). Besides, the T/C reads like this: (dose: 25.0 mg/kg/injection, schedule: Q04DX003 (ip), vehicle: saline) 166 % of control; (dose: 50.0 mg/kg/injection, schedule: Q04DX003 (ip), vehicle: saline) 154 % of control.

Regarding `S=C1N(c2ccc(Cl)cc2)C2=C(N=Nc3cc(Cl)ccc3Cl)C(=Nc3ccccc3S2)N1c1ccccn1`, the T/C reads like this: under setting [9], 100 % of control; under setting [10], 110 % of control; under setting [11], 106 % of control and 110 % of control.

As to `c1ccc2c(c1)C1OC2c2c1ccc1ccccc21` (centres undefined), the T/C was 97 % of control under setting [1], 90 % of control under setting [2] and 88 % of control under setting [3].

For `O=C([O-])c1c[n+]2c(cc1C(=O)O)-c1cc3c(cc1CC2)OCO3`, the T/C reads like this: (dose: 0.63 mg/kg/injection, schedule: Q01DX009 (ip), vehicle: distilled water + Tween-80) 99 % of control; (dose: 1.25 mg/kg/injection, schedule: Q01DX009 (ip), vehicle: distilled water + Tween-80) 94 % of control; (dose: 2.5 mg/kg/injection, schedule: Q01DX009 (ip), vehicle: distilled water + Tween-80) 94 % of control; (dose: 5.0 mg/kg/injection, schedule: Q01DX009 (ip), vehicle: distilled water + Tween-80) 94 % of control; (dose: 10.0 mg/kg/injection, schedule: Q01DX009 (ip), vehicle: distilled water + Tween-80) 99 % of control; (dose: 20.0 mg/kg/injection, schedule: Q01DX009 (ip), vehicle: distilled water + Tween-80) 100 % of control.

`COc1cc(C2(C3C(CO)OC(=O)C3Cc3ccc4c(c3)OCO4)SCCCS2)cc(OC)c1OC` (centres undefined): the T/C is 100 % of control (dose: 25.0 mg/kg/injection, schedule: Q04DX002 (ip), vehicle: saline with Tween-80) and 87 % of control (dose: 50.0 mg/kg/injection, schedule: Q04DX002 (ip), vehicle: saline with Tween-80).

For `CCOC(=O)CCC(=O)Oc1cccc2c1C(=O)c1c(O)cccc1C2=O`, the T/C is, setting by setting: under setting [15], 91 % of control; under setting [16], 95 % of control; (dose: 240.0 mg/kg/injection, schedule: Q01DX005 (ip), vehicle: Klucel (hydroxypropylcellulose) (HPC)) 97 % of control.

In the case of `C[Si](C)(C)c1cc[c]([Sn]([CH3])([CH3])[CH3])cc1`, the T/C is, setting by setting: under setting [4], 105 % of control; under setting [5], 101 % of control; under setting [6], 93 % of control.

For the compound `CC1=C(CO)C(=O)OC(C(C)C2CCC3C4CC5OC56C(O)CCC(=O)C6(C)C4CCC23C)C1` (centres undefined), the T/C runs as follows: (dose: 11.15 mg/kg/injection, schedule: Q01DX009 (ip), vehicle: saline + alcohol) 95 % of control; (dose: 22.3 mg/kg/injection, schedule: Q01DX009 (ip), vehicle: saline + alcohol) 99 % of control; (dose: 44.6 mg/kg/injection, schedule: Q01DX009 (ip), vehicle: saline + alcohol) 101 % of control.

With `O=c1c2cncnc2sc2nc3ccccc3n12`, the T/C is 95 % of control under setting [11], 94 % of control under setting [13] and 88 % of control under setting [14].

Take `COC(=O)C1CC=C(c2ccccc2)CNC1` (centres undefined): the T/C runs as follows: under setting [7], 93 % of control; under setting [8], 94 % of control.

With `C=C(C)[C@H]1CN[C@H](C(=O)O)[C@H]1CC(=O)O`, the T/C (dose: 0.62 mg/kg/injection, schedule: Q01DX005 (ip), vehicle: saline) was 98 % of control; the T/C (dose: 1.25 mg/kg/injection, schedule: Q01DX005 (ip), vehicle: saline) is 92 % of control; the T/C (dose: 2.5 mg/kg/injection, schedule: Q01DX005 (ip), vehicle: saline) is 99 % of control and 92 % of control; the T/C (dose: 5.0 mg/kg/injection, schedule: Q01DX005 (ip), vehicle: saline) is 93 % of control and 96 % of control; the T/C (dose: 10.0 mg/kg/injection, schedule: Q01DX005 (ip), vehicle: saline) was 99 % of control and 101 % of control; the T/C (dose: 20.0 mg/kg/injection, schedule: Q01DX005 (ip), vehicle: saline) was 100 % of control and 116 % of control. Also, the T/C (dose: 40.0 mg/kg/injection, schedule: Q01DX005 (ip), vehicle: saline) is 105 % of control.

On to `O=S(=O)(c1ccc(N=C=S)cc1)c1ccc(N=C=S)cc1`, for which the T/C under setting [12] was 112 % of control.

As to `Oc1ccc2ccccc2c1N=Nc1ccc(Cl)cc1`, the T/C is 100 % of control (dose: 100.0 mg/kg/injection, schedule: Q04DX003 (ip), vehicle: saline with Tween-80); 100 % of control (dose: 200.0 mg/kg/injection, schedule: Q04DX003 (ip), vehicle: saline with Tween-80); 90 % of control (dose: 400.0 mg/kg/injection, schedule: Q04DX003 (ip), vehicle: saline with Tween-80).

For `CN1C=C([N+](=O)[O-])C(N2CCOCC2)C1N1CCOCC1` (centres undefined), the T/C is, setting by setting: under setting [15], 96 % of control; under setting [16], 114 % of control.
